Measured values reported in ChEMBL document CHEMBL5321200, “Discovery of the GSH responsive "Y-PROTACs" targeting ALK and CDK4/6 as a potential treatment for cancer” (Eur J Med Chem, 2023).
Active and inactive are the calls of the source. The calls are words filed in the database; no cut-off is given here.

Experiments:
NCI-H2228 = experiment: Antiproliferative activity against human NCI-H2228 cells assessed as inhibition of cell growth pretreated with GSH followed by compound addition and incubated for 3 to 5 days by MTT assay; type: functional, cell-based
[1] = target: Cyclin-dependent kinase 6 (Homo sapiens) (UniProt Q00534); experiment: Inhibition of CDK6 (unknown origin) at 0.05 uM by LANCE Ultra TR-FRET assay relative to control
[2] = target: Cyclin-dependent kinase 6 (Homo sapiens) (UniProt Q00534); experiment: Inhibition of CDK6 (unknown origin) at 1 uM by LANCE Ultra TR-FRET assay relative to control
NCI-H3122 [3] = experiment: Induction of apoptosis in human NCI-H3122 cells assessed as late apoptotic cells at 0.625 uM incubated for 48 hrs by Annexin V-FITC/propidium iodide staining based flow cytometric analysis (reference value: 3.06%); type: functional
[4] = Toxicity in BALB/c nude mouse xenografted with human NCI-H3122 cells assessed as effect on visceral liver morphology at 75 mg/kg, IG administered once daily for 18 days and measured after 12 hrs of last dose by H and E staining based analysis; type: organism-based; settings: in vivo, po, 444 h
NCI-H3122 [5] = experiment: Induction of apoptosis in human NCI-H3122 cells assessed as viable cells at 1.25 uM incubated for 48 hrs by Annexin V-FITC/propidium iodide staining based flow cytometric analysis (reference value: 95.66%); type: functional; settings: read-out: Activity
[6] = target: T1, Protein cereblon/ALK tyrosine kinase receptor/Echinoderm microtubule-associated protein-like 4 (Homo sapiens) (UniProt Q9UM73+Q9HC35+Q96SW2); experiment: PROTAC activity at CRBN/EML4-ALK in human NCI-H3122 cells assessed as reduction in EML4-ALK fusion protein level at 10 uM incubated for 24 hrs by Western blot analysis; type: cell-based
NCI-H3122 [7] = experiment: Inhibition of colony formation in human NCI-H3122 cells assessed as reduction in number of colonies at 0.312 uM measured after 10 days by crystal violet staining based microscopic analysis relative to control; type: functional; settings: NCI-H3122, 240 h, time 10 day
[8] = Stability of the compound in PBS buffer incubated upto 24 hrs in the presence of GSH by LC-MS/MS analysis; type: physicochemical
[9] = target: T2, Protein cereblon/Cyclin-dependent kinase 4 (Homo sapiens, UniProt P11802+Q96SW2); experiment: PROTAC activity at CRBN/CDK4 in human NCI-H3122 cells assessed as reduction in CDK4 protein level at 5 uM incubated for 16 hrs followed by compound washout and measured after 8 hrs by Western blot analysis; type: cell-based
NCI-H3122 [10] = experiment: Antitumor activity against human NCI-H3122 cells xenografted in BALB/c nude mouse assessed as reduction in tumor weight at 75 mg/kg, IG administered once daily for 18 days and measured after 12 hrs of last dose; type: functional, organism-based; settings: time 444.0 hrs
NCI-H1299 [11] = experiment: Antiproliferative activity against human NCI-H1299 cells assessed as inhibition of cell growth pretreated with GSH followed by compound addition and incubated for 3 to 5 days by MTT assay; type: functional, cell-based
[12] = target: T2, Protein cereblon/Cyclin-dependent kinase 4; experiment: PROTAC activity at CRBN/CDK4 in human NCI-H3122 cells assessed as decrease in CDK4 protein level at 0.1 to 20 uM incubated for 24 hrs in presence of GSH by Western blot analysis; type: cell-based; settings: dose 0.1-20 µM
[13] = target: T2, Protein cereblon/Cyclin-dependent kinase 4; experiment: PROTAC activity at CRBN/CDK4 in human NCI-H3122 cells assessed as increase in CDK4 protein level at 5 uM measured after 24 hrs by Western blot analysis; type: cell-based
NCI-H3122 [14] = experiment: Antiproliferative activity against human NCI-H3122 cells assessed as inhibition of cell growth pretreated with GSH followed by compound addition and incubated for 3 to 5 days by MTT assay; type: functional, cell-based
[15] = Toxicity in BALB/c nude mouse xenografted with human NCI-H3122 cells assessed as reduction in body weight at 25 to 75 mg/kg, IG administered once daily for 18 days; type: organism-based; settings: in vivo, po, 432 h, dose 25-75 mg/kg, time 18 day
NCI-H3122 [16] = experiment: Antitumor activity against human NCI-H3122 cells xenografted in BALB/c nude mouse assessed as tumor growth inhibition at 75 mg/kg, IG administered once daily for 18 days and measured after 12 hrs of last dose relative to control; type: functional; settings: NCI-H3122, po, time 444 hrs, read-out: TGI
[17] = Toxicity in BALB/c nude mouse xenografted with human NCI-H3122 cells assessed as effect on liver function at 75 mg/kg, IG administered once daily for 18 days by H and E staining based assay; type: organism-based; settings: in vivo, po, 432 h, time 18 day
[18] = target: Protein cereblon/ALK tyrosine kinase receptor (Homo sapiens) (UniProt Q9UM73+Q96SW2); experiment: PROTAC activity at CRBN/ALK in human NCI-H3122 cells assessed as degradation of ALK protein at 5 uM pretreated with ceritinib for 4 hrs followed by compound addition and measured after 24 hrs by Western blot analysis; type: cell-based
[19] = Toxicity in BALB/c nude mouse xenografted with human NCI-H3122 cells assessed as effect on visceral kidney morphology at 75 mg/kg, IG administered once daily for 18 days and measured after 12 hrs of last dose by H and E staining based analysis; type: organism-based; settings: in vivo, po, 444 h
[20] = target: T1, Protein cereblon/ALK tyrosine kinase receptor/Echinoderm microtubule-associated protein-like 4 (Homo sapiens); experiment: PROTAC activity at CRBN/EML4-ALK in human NCI-H3122 cells assessed as reduction in EML4-ALK fusion protein level at 5 uM incubated for 48 hrs followed by compound washout and measured within 16 hrs by Western blot analysis; type: cell-based
NCI-H3122 [21] = experiment: Cell cycle arrest in human NCI-H3122 cells assessed as G2/M phase cells at 0.312 uM incubated for 24 hrs by propidium iodide staining based flow cytometric analysis (reference value: 20.89%); type: functional
[22] = Cytotoxicity against human L02 cells assessed as inhibition of cell growth incubated for 3 to 5 days by MTT assay; type: toxicity, cell-based
NCI-H1299 [23] = experiment: Antiproliferative activity against human NCI-H1299 cells assessed as inhibition of cell growth incubated for 3 to 5 days by MTT assay; type: functional, cell-based
NCI-H3122 [24] = experiment: Induction of apoptosis in human NCI-H3122 cells assessed as necrotic cells at 0.312 uM incubated for 48 hrs by Annexin V-FITC/propidium iodide staining based flow cytometric analysis (reference value: 0.57%); type: functional
[25] = Toxicity in BALB/c nude mouse xenografted with human NCI-H3122 cells assessed as effect on visceral heart morphology at 75 mg/kg, IG administered once daily for 18 days and measured after 12 hrs of last dose by H and E staining based analysis; type: organism-based; settings: in vivo, po, 444 h
NCI-H3122 [26] = experiment: Cell cycle arrest in human NCI-H3122 cells assessed as G2/M phase cells at 2.5 uM incubated for 24 hrs by propidium iodide staining based flow cytometric analysis (reference value: 20.89%); type: functional
NCI-H3122 [27] = experiment: Induction of apoptosis in human NCI-H3122 cells assessed as early apoptotic cells at 1.25 uM incubated for 48 hrs by Annexin V-FITC/propidium iodide staining based flow cytometric analysis (reference value: 0.71%); type: functional
NCI-H3122 [28] = experiment: Cell cycle arrest in human NCI-H3122 cells assessed as accumulation of cells at G0/G1 phase at 0.312 uM incubated for 24 hrs by propidium iodide staining based flow cytometric analysis (reference value: 48.68%); type: functional
[29] = Stability of the compound in mouse plasma assessed as cleavage to metabolites measured after 4 hrs by LC-MS/MS analysis relative to control; type: ADME, cell-free

T2 sequence (P11802 2-303 limits assumed): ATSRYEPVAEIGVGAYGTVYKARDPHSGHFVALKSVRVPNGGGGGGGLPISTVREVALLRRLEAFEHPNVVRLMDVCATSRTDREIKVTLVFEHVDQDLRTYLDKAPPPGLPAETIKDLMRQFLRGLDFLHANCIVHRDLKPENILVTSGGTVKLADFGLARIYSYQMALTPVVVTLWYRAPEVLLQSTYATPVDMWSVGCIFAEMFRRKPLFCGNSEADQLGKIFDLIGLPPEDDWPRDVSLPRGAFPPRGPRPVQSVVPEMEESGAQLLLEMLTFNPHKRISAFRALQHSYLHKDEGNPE
T2 sequence (Q96SW2 whole entry partner): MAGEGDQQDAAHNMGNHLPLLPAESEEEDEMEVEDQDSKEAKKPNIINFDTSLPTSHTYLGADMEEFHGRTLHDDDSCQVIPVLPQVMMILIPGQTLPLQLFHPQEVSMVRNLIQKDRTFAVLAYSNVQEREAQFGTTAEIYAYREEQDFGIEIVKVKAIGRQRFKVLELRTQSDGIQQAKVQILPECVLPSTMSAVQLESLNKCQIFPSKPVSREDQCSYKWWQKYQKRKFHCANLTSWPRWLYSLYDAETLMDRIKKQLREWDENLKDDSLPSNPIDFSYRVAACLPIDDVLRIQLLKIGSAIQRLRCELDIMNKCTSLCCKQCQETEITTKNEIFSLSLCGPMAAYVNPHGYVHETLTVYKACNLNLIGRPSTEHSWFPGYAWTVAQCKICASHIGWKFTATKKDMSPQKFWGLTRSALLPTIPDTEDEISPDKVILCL
T1 sequence (Q96SW2 whole entry partner, the tested form may be a part): as the sequence (Q96SW2 whole entry partner) above
T1 sequence (Q9HC35 whole entry partner, the tested form may be a part): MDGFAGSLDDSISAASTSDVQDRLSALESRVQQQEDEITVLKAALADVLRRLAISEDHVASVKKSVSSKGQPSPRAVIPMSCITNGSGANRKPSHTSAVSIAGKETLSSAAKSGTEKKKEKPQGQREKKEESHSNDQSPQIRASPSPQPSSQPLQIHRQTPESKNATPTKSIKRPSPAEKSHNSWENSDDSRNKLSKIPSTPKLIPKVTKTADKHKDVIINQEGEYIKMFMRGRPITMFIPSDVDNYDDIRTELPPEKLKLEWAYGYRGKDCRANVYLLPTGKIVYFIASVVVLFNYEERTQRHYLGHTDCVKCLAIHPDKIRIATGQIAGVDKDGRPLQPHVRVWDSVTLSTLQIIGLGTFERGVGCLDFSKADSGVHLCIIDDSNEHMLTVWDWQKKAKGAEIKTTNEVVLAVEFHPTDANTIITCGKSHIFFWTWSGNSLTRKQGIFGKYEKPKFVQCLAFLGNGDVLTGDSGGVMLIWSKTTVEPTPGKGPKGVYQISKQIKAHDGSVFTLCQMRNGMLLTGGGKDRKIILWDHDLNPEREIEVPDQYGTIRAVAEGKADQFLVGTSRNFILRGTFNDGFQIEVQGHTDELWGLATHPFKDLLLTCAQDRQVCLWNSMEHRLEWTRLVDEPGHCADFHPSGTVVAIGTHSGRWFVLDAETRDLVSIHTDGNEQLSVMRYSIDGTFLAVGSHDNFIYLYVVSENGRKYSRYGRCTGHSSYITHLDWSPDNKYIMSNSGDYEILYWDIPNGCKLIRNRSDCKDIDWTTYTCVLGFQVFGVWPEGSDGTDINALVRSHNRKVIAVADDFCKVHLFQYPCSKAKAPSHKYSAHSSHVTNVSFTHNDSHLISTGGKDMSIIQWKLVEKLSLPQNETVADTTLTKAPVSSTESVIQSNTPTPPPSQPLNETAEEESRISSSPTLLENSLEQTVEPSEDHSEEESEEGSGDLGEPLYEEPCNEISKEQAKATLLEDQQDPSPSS
T1 sequence (Q9UM73 19-1620 limits assumed): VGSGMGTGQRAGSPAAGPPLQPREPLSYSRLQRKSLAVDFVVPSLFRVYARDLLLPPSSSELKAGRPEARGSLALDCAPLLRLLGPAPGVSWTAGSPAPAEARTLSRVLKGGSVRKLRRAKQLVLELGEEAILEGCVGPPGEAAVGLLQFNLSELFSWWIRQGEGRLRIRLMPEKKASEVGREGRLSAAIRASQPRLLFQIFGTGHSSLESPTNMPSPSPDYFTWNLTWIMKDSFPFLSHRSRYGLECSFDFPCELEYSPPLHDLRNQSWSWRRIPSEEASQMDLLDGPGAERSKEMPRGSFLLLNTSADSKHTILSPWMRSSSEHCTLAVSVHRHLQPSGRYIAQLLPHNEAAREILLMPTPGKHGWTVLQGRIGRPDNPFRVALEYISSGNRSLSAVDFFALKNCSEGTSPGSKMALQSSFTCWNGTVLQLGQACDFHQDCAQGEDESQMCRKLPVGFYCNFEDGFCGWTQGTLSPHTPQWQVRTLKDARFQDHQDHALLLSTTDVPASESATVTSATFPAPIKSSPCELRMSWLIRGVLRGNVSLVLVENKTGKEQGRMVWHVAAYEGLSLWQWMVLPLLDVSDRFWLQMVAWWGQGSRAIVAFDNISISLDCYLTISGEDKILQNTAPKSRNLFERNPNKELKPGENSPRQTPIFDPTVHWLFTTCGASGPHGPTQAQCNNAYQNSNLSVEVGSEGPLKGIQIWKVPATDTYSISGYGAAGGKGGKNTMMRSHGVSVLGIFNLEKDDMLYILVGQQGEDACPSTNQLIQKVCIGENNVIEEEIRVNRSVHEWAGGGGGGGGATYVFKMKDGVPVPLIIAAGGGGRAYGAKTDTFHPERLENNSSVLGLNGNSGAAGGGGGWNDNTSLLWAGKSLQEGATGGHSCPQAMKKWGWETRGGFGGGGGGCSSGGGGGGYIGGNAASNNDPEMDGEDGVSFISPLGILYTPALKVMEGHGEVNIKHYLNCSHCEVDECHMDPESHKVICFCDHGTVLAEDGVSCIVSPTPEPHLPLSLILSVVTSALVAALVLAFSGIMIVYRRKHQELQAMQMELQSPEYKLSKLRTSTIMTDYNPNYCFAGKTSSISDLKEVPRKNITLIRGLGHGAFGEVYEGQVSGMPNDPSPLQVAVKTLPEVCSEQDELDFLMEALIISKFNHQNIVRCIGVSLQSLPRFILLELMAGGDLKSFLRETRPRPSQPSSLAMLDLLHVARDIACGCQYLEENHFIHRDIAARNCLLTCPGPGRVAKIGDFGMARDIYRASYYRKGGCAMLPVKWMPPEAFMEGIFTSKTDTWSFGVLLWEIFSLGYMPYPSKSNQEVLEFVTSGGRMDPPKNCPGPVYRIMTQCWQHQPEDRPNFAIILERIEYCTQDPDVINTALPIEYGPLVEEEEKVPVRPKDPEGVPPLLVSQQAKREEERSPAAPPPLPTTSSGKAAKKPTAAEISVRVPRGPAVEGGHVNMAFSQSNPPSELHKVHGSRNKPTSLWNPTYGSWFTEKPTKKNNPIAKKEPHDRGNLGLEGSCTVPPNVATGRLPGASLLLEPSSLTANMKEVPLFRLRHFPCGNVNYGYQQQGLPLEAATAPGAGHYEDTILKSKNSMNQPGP
Sequence of Cyclin-dependent kinase 6 (Homo sapiens) (Q00534 whole entry): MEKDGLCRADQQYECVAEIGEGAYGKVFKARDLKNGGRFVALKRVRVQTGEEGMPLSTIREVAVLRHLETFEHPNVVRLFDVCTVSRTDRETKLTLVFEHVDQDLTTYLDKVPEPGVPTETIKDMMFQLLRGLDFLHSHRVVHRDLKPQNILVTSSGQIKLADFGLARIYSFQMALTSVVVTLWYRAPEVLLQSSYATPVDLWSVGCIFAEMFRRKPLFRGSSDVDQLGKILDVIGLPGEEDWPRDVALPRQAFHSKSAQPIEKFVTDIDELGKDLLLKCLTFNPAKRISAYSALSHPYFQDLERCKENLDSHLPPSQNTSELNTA
Sequence of Protein cereblon/ALK tyrosine kinase receptor (Homo sapiens) (Q96SW2 whole entry partner): as the sequence (Q96SW2 whole entry partner) above
Sequence of Protein cereblon/ALK tyrosine kinase receptor (Homo sapiens) (Q9UM73 19-1620 limits assumed): as the sequence (Q9UM73 19-1620 limits assumed) above

## CC(=O)c1c(C)c2cnc(Nc3ccc(N4CCN(CC(=O)NCCSSCCN(CC(=O)NCCNc5cccc6c5C(=O)N(C5CCC(=O)NC5=O)C6=O)C(=O)CCCCCCC(=O)N5CCC(c6cc(OC(C)C)c(Nc7ncc(Cl)c(Nc8ccccc8S(=O)(=O)C(C)C)n7)cc6C)CC5)CC4)cn3)nc2n(C2CCCC2)c1=O (stereo not given)
NCI-H2228
  IC50: 1.76 µM
[1]
  inhibition: 92%
[2]
  inhibition: 97.8%
NCI-H3122 [3]
  Activity: 8.32%
[4]
  Activity: Non-Toxic
NCI-H3122 [5]
  viability at 1.25 µM: 86.6%
[6]
  Activity: Active
NCI-H3122 [7]
  inhibition at 0.312 µM: 100%
[8]
  Stability: Stable
[9]
  Activity: inactive
NCI-H3122 [10]
  Activity: Active
NCI-H1299 [11]
  IC50: 4.73 µM
[12]
  Activity: inactive
[13]
  Activity: inactive
NCI-H3122 [14]
  IC50: 0.09 µM
[15]
  Activity: Non-Toxic
NCI-H3122 [16]
  inhibition in vivo at 75 mg/kg: 60.5%
[17]
  Activity: Non-Toxic
[18]
  Activity: inactive
[19]
  Activity: Non-Toxic
[20]
  Activity: Active
NCI-H3122 [21]
  Activity: 18.82%
[22]
  IC50: 55.3 µM
NCI-H1299 [23]
  IC50: 21.2 µM
NCI-H3122 [24]
  Activity: 0.6%
[25]
  Activity: Non-Toxic
NCI-H3122 [26]
  Activity: 11.78%
NCI-H3122 [27]
  Activity: 1.03%
NCI-H3122 [28]
  Activity: 63.17%
[29]
  Drug degradation: 30%
